From ChEMBL document CHEMBL1201862, “PubChem BioAssay data set” (2004)
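A five-concentration, 48-hour dose response in 96-well plates underlies each endpoint, interpolated linearly between surrounding concentrations. Abbreviation: GI50, concentration required for 50% inhibition of growth.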 Calls of active or inactive are those of the source. Rule as the data show it: active = GI50 up to about 1.1 µM and inactive = higher.

Experiments:
Experiment in all cases: NCI tumour cell line growth inhibition, 48 h
[1] = system: Hs-578T
[2] = system: MDA-N
[3] = system: HL-60
[4] = system: A549
[5] = system: SK-OV-3
[6] = system: CCRF-CEM
[7] = system: 786-0
[8] = system: NCI-H460
[9] = system: SNB-19
[10] = system: SW-620
[11] = system: UO-31
[12] = system: A498
[13] = system: MDA-MB-435
[14] = system: TK-10
[15] = system: OVCAR-5
[16] = system: MDA-MB-231
[17] = system: SF-539
[18] = system: BT-549
[19] = system: MCF7
[20] = system: OVCAR-4

Compound	GI50 [1]	GI50 [2]	GI50 [3]	GI50 [4]	GI50 [5]	GI50 [6]	GI50 [7]	GI50 [8]	GI50 [9]	GI50 [10]	GI50 [11]	GI50 [12]	GI50 [13]	GI50 [14]	GI50 [15]	GI50 [16]	GI50 [17]	GI50 [18]	GI50 [19]	GI50 [20]
CCOC(=O)Cc1cc(=O)oc2cc(O)ccc12	> 100 µM (inactive)	> 100 µM (inactive)	> 100 µM (inactive)	> 100 µM (inactive)	> 100 µM (inactive)	> 100 µM (inactive)	> 100 µM (inactive)	> 100 µM (inactive)	> 100 µM (inactive)	> 100 µM (inactive)	> 100 µM (inactive)	> 100 µM (inactive)	> 100 µM (inactive)	> 100 µM (inactive)	59.4 µM (inactive)	> 100 µM (inactive)	> 100 µM (inactive)	> 100 µM (inactive)	–	–
COc1ccc2ccccc2c1C1NC(=O)c2ccccc2N1 (configuration not stated)	1.7 µM (inactive)	0.173 µM (active)	0.0518 µM (active)	1.51 µM (inactive)	2.82 µM (inactive)	0.711 µM (active)	1.53 µM (inactive)	1.26 µM (inactive)	2.84 µM (inactive)	0.536 µM (active)	11.3 µM (inactive)	1.3 µM (inactive)	0.234 µM (active)	5.15 µM (inactive)	3.39 µM (inactive)	3.63 µM (inactive)	1.55 µM (inactive)	> 100 µM (inactive)	0.78 µM (active)	–
CC(C)(C)CC(C)(C)c1cc(O)c(O)c(CN2CCCCC2)c1	15.6 µM (inactive)	15.1 µM (inactive)	13.3 µM (inactive)	17.1 µM (inactive)	19.8 µM (inactive)	–	13.4 µM (inactive)	11.7 µM (inactive)	15.3 µM (inactive)	13.2 µM (inactive)	13.3 µM (inactive)	14.3 µM (inactive)	16.9 µM (inactive)	16.1 µM (inactive)	17.4 µM (inactive)	17.7 µM (inactive)	–	15.1 µM (inactive)	12.5 µM (inactive)	19.2 µM (inactive)
CN1CCCN(C)CCCN(C)CCCN(C)CCC1	> 100 µM (inactive)	> 100 µM (inactive)	–	> 100 µM (inactive)	> 100 µM (inactive)	> 100 µM (inactive)	> 100 µM (inactive)	–	> 100 µM (inactive)	> 100 µM (inactive)	> 100 µM (inactive)	–	> 100 µM (inactive)	> 100 µM (inactive)	> 100 µM (inactive)	> 100 µM (inactive)	–	> 100 µM (inactive)	> 100 µM (inactive)	> 100 µM (inactive)
CCOC(=O)c1c(-c2ccc(OC)cc2)c(C#N)c(=S)n(C2OC(CO)C(O)C(O)C2O)c1-c1ccccc1 (configuration not stated)	25.2 µM (inactive)	33.2 µM (inactive)	40.8 µM (inactive)	> 100 µM (inactive)	90.6 µM (inactive)	31.2 µM (inactive)	48.2 µM (inactive)	42.7 µM (inactive)	85.1 µM (inactive)	36.1 µM (inactive)	51.5 µM (inactive)	–	30.8 µM (inactive)	55.6 µM (inactive)	> 100 µM (inactive)	36 µM (inactive)	38.1 µM (inactive)	37.4 µM (inactive)	39.4 µM (inactive)	34.3 µM (inactive)
CC(C)=CCc1cc2c(cc1O)OC[C@H]1c3cc4c(cc3O[C@@H]21)OCO4	18.2 µM (inactive)	20.6 µM (inactive)	23.8 µM (inactive)	80.4 µM (inactive)	> 100 µM (inactive)	26.4 µM (inactive)	42.1 µM (inactive)	21.2 µM (inactive)	66.1 µM (inactive)	36.5 µM (inactive)	31.6 µM (inactive)	–	32.6 µM (inactive)	39.8 µM (inactive)	61.7 µM (inactive)	40.3 µM (inactive)	36.7 µM (inactive)	23.4 µM (inactive)	25.3 µM (inactive)	37.4 µM (inactive)
COC(=O)C(=O)C(C(=O)C(=O)Nc1ccc(C)cc1)c1nc2ccc(C(=O)c3ccccc3)cc2nc1O (configuration not stated)	57.3 µM (inactive)	43.4 µM (inactive)	30.1 µM (inactive)	> 100 µM (inactive)	> 100 µM (inactive)	76.4 µM (inactive)	> 100 µM (inactive)	70.8 µM (inactive)	> 100 µM (inactive)	> 100 µM (inactive)	51.2 µM (inactive)	> 100 µM (inactive)	47.3 µM (inactive)	> 100 µM (inactive)	> 100 µM (inactive)	> 100 µM (inactive)	> 100 µM (inactive)	> 100 µM (inactive)	–	49 µM (inactive)
O=C1Oc2cc(O)cc(/C=C/c3ccc(O)cc3)c2[C@@]12c1c(O)cc(O)cc1OC2c1cccc(O)c1 (some centres not stated)	20.5 µM (inactive)	26.1 µM (inactive)	28.9 µM (inactive)	54 µM (inactive)	30.8 µM (inactive)	22 µM (inactive)	24.5 µM (inactive)	20.9 µM (inactive)	30.7 µM (inactive)	–	29.7 µM (inactive)	–	21.4 µM (inactive)	39.1 µM (inactive)	29.2 µM (inactive)	26.4 µM (inactive)	31.8 µM (inactive)	49.8 µM (inactive)	39.1 µM (inactive)	56.2 µM (inactive)
COc1cc(/C=C2/SC(c3ccccc3)N(c3ccc(NC(C)=O)cc3)C2=O)cc(OC)c1OC (configuration not stated)	35.5 µM (inactive)	82.6 µM (inactive)	66.4 µM (inactive)	> 100 µM (inactive)	> 100 µM (inactive)	–	> 100 µM (inactive)	> 100 µM (inactive)	> 100 µM (inactive)	> 100 µM (inactive)	48.8 µM (inactive)	> 100 µM (inactive)	66.4 µM (inactive)	> 100 µM (inactive)	> 100 µM (inactive)	> 100 µM (inactive)	> 100 µM (inactive)	> 100 µM (inactive)	76.9 µM (inactive)	> 100 µM (inactive)
O=[N+]([O-])C(=C/c1cccc2ccccc12)/C(=C\c1cccc2ccccc12)[N+](=O)[O-]	3.01 µM (inactive)	2.62 µM (inactive)	–	15.3 µM (inactive)	6.08 µM (inactive)	0.528 µM (active)	1.77 µM (inactive)	2.34 µM (inactive)	4.51 µM (inactive)	1.89 µM (inactive)	1.85 µM (inactive)	19.3 µM (inactive)	2.28 µM (inactive)	2.17 µM (inactive)	3.66 µM (inactive)	2.1 µM (inactive)	2.21 µM (inactive)	2.05 µM (inactive)	2.99 µM (inactive)	2.91 µM (inactive)
COC(=O)c1ccccc1CC1Cc2cccc(C)c2C1=O (configuration not stated)	38.3 µM (inactive)	36.1 µM (inactive)	–	51.8 µM (inactive)	38.9 µM (inactive)	36.8 µM (inactive)	47.5 µM (inactive)	47.5 µM (inactive)	52.5 µM (inactive)	42.4 µM (inactive)	22.7 µM (inactive)	–	23.3 µM (inactive)	21.3 µM (inactive)	57.5 µM (inactive)	51.5 µM (inactive)	89.7 µM (inactive)	30 µM (inactive)	26.6 µM (inactive)	27.7 µM (inactive)
CCCC1NC(=O)C(CC(C)C)NC(=O)c2cccc(n2)C(=O)NC(CC(C)C)C(=O)NC(CCC)C(=O)NC(C(=O)OC)CCCCNC1=O (configuration not stated)	71.1 µM (inactive)	36.9 µM (inactive)	–	> 100 µM (inactive)	27.2 µM (inactive)	15.6 µM (inactive)	> 100 µM (inactive)	> 100 µM (inactive)	53.5 µM (inactive)	34.8 µM (inactive)	> 100 µM (inactive)	> 100 µM (inactive)	35.4 µM (inactive)	57.8 µM (inactive)	> 100 µM (inactive)	18.7 µM (inactive)	22 µM (inactive)	26.4 µM (inactive)	25.9 µM (inactive)	38.8 µM (inactive)
O=C(O)CSC1=NCCN1	> 100 µM (inactive)	> 100 µM (inactive)	–	> 100 µM (inactive)	> 100 µM (inactive)	> 100 µM (inactive)	> 100 µM (inactive)	> 100 µM (inactive)	> 100 µM (inactive)	> 100 µM (inactive)	> 100 µM (inactive)	> 100 µM (inactive)	> 100 µM (inactive)	> 100 µM (inactive)	> 100 µM (inactive)	> 100 µM (inactive)	> 100 µM (inactive)	> 100 µM (inactive)	> 100 µM (inactive)	> 100 µM (inactive)
NC(=O)C(c1ccccc1)N1OC2C(=O)N(c3cccc4ccccc34)C(=O)C2C1c1c2ccccc2c(Cl)c2ccccc12 (configuration not stated)	18.6 µM (inactive)	2.38 µM (inactive)	2.44 µM (inactive)	13.9 µM (inactive)	19 µM (inactive)	–	10.2 µM (inactive)	9.31 µM (inactive)	8.22 µM (inactive)	3.15 µM (inactive)	12 µM (inactive)	14.6 µM (inactive)	6.92 µM (inactive)	10.4 µM (inactive)	9.66 µM (inactive)	9.25 µM (inactive)	5.24 µM (inactive)	9.42 µM (inactive)	2.85 µM (inactive)	9.93 µM (inactive)
COc1cccc(C=C2N=C(C)N(n3c(-c4ccccc4)nc4ccccc4c3=O)C2=O)c1	> 100 µM (inactive)	> 100 µM (inactive)	> 100 µM (inactive)	> 100 µM (inactive)	> 100 µM (inactive)	57.5 µM (inactive)	> 100 µM (inactive)	> 100 µM (inactive)	> 100 µM (inactive)	> 100 µM (inactive)	> 100 µM (inactive)	> 100 µM (inactive)	> 100 µM (inactive)	> 100 µM (inactive)	–	> 100 µM (inactive)	> 100 µM (inactive)	> 100 µM (inactive)	83.4 µM (inactive)	–
